Like-named read-outs stand apart in the source and are kept apart here. Blank lines part the entries; values can stand above or below the compound they belong to.
Legend:
[1] = Published palbociclib exposure data (A5481001, A5481003, A5481008, Ibrance label); format: in vivo; conditions: human, plasma; A5481001, A5481003, A5481008, N=57; read-out: AUC0-24 h, reference: geometric mean of individual studies weighed by number of subjects (converted)
[2] = cited from earlier work
[3] = cited from earlier work; remark: listed apart in the source
[4] = pooled analysis, 1666 patients treated with palbociclib; cited from earlier work
[5] = Amcenestrant PK parameters at steady state in patients; format: in vivo, human; conditions: for AUC(0-t) / Cmax / Tmax / concentration at 0 h: human, plasma, oral; for Tmax: read-out: Tmax (median); for concentration at 0 h: read-out: Ctrough (arithmetic mean)
[6] = amcenestrant 200 mg with palbociclib, steady state Day 21, N=8
[7] = amcenestrant 400 mg monotherapy, steady state, N=13
[8] = amcenestrant 400 mg with palbociclib, steady state Day 21, N=5

- AUC(0-t) [1]: 1970 ng·h/mL
SMILES: CC(=O)c1c(C)c2cnc(Nc3ccc(N4CCNCC4)cn3)nc2n(C2CCCC2)c1=O [Palbociclib, 6-acetyl-8-cyclopentyl-5-methyl-2-{[5-(piperazin-1-yl)pyridin-2-yl]amino}pyrido[2,3-d]pyrimidin-7(8H)-one]
- decrease of exposure when combined with a moderate CYP3A inducer (modafinil) ([2]; Ibrance U.S. label): 32%
- Cmax, arithmetic mean (CV %) ([2]; study A5481001, palbociclib monotherapy, steady state, N=4): 97.4 (41%) ng/mL
- Cmax, geometric mean (CV %) ([2]; study A5481003, palbociclib monotherapy, steady state, N=12): 116 (28%) ng/mL
- Cmax, geometric mean (CV %) ([2]; study A5481008, palbociclib with letrozole, steady state, N=41): 110 (35%) ng/mL
- solubility ([3]; Above pH 4): reduces significantly
- solubility ([3]; At or below pH 4): high-solubility compound
- neutrophil count decrease, any grade [4]: 95.2%

SMILES: O=C(O)c1ccc2c(c1)CCCC(c1ccc(Cl)cc1Cl)=C2c1ccc(O[C@H]2CCN(CCCF)C2)cc1 [Amcenestrant, 6-(2,4-dichlorophenyl)-5-[4-[(3S)-1-(3-fluoropropyl)pyrrolidin-3-yl]oxyphenyl]-8,9-dihydro-7H-benzo[7]annulene-2-carboxylic acid]
- CLss/F (arithmetic mean) [5, 6]: 10.7 L/h
- Ctrough [geometric mean] [5, 6]: [215] ng/mL
- CLss/F (arithmetic mean) ([5]; amcenestrant 200 mg with palbociclib, steady state Day 21, N=8, listed as amcenestrant): 10.7 ± 3.38 L/h
- CLss/F (arithmetic mean) [5, 7]: 10.6 L/h
- Ctrough [geometric mean] [5, 7]: [466] ng/mL
- CLss/F (arithmetic mean) ([5]; amcenestrant 400 mg monotherapy, steady state, N=13, listed as amcenestrant): 10.6 ± 4.35 L/h
- systemic clearance higher than after amcenestrant 400 mg QD single agent ([5]; amcenestrant 400 mg with palbociclib, Day 21): 28%
- CLss/F (arithmetic mean) [5, 8]: 13.5 L/h
- Ctrough [geometric mean] [5, 8]: [248] ng/mL
- CLss/F (arithmetic mean) ([5]; amcenestrant 400 mg with palbociclib, steady state Day 21, N=5, listed as amcenestrant): 13.5 ± 5.36 L/h
- AUC(0-t) ([5]; female, 200 mg, amcenestrant 200 mg with palbociclib, steady state Day 21, N=8, read-out: AUC0-24h (arithmetic mean) (converted)): 20600 ng·h/mL
- Cmax ([5]; female, 200 mg, amcenestrant 200 mg with palbociclib, steady state Day 21, N=8, read-out: Cmax (arithmetic mean)): 2060 ng/mL
- Tmax ([5]; female, 200 mg): 4.88 h
- AUC(0-t) ([5]; female, 400 mg, amcenestrant 400 mg with palbociclib, steady state Day 21, N=5, read-out: AUC0-24h (arithmetic mean) (converted)): 33100 ng·h/mL
- AUC(0-t) ([5]; female, 400 mg, amcenestrant 400 mg with palbociclib, steady state Day 21, N=5, read-out: AUC0-24h [geometric mean]): 31400 ng·h/mL
- Cmax ([5]; female, 400 mg, amcenestrant 400 mg with palbociclib, steady state Day 21, N=5, read-out: Cmax (arithmetic mean)): 4350 ng/mL
- Cmax ([5]; female, 400 mg, amcenestrant 400 mg with palbociclib, steady state Day 21, N=5, read-out: Cmax [geometric mean]): 3450 ng/mL
- Tmax ([5]; female, 400 mg): 4 h
- concentration at 0 h ([5]; female, amcenestrant 200 mg with palbociclib, steady state Day 21, N=8): 226 ng/mL
- concentration at 0 h ([5]; female, amcenestrant 400 mg with palbociclib, steady state Day 21, N=5): 280 ng/mL
- AUC(0-t) ([5]; 200 mg, amcenestrant 200 mg with palbociclib, steady state Day 21, N=8, read-out: AUC0-24h [geometric mean]): 19500 ng·h/mL
- Cmax ([5]; 200 mg, amcenestrant 200 mg with palbociclib, steady state Day 21, N=8, read-out: Cmax [geometric mean]): 1940 ng/mL
- AUC(0-t) ([5]; 400 mg, amcenestrant 400 mg monotherapy, steady state, N=13, read-out: AUC0-24h (arithmetic mean) (converted)): 43200 ng·h/mL
- AUC(0-t) ([5]; 400 mg, amcenestrant 400 mg monotherapy, steady state, N=13, read-out: AUC0-24h [geometric mean]): 40400 ng·h/mL
- Cmax ([5]; 400 mg, amcenestrant 400 mg monotherapy, steady state, N=13, read-out: Cmax (arithmetic mean)): 4380 ng/mL
- Cmax ([5]; 400 mg, amcenestrant 400 mg monotherapy, steady state, N=13, read-out: Cmax [geometric mean]): 4220 ng/mL
- concentration at 0 h ([5]; 400 mg, amcenestrant 400 mg monotherapy, steady state, N=13): 630 ng/mL
- Tmax ([5]; 400 mg): 3 h

Reference: patent US20240173293A1 (Sanofi, priority 2021, published 2024)
